Measured values taken from patent US20240148821A1, “PHARMACEUTICAL USE OF CYCLIC PEPTIDE COMPOUND” (CHUGAI SEIYAKU KABUSHIKI KAISHA, priority 2021, published 2024).
Numbered stars: 1 amine (or outer) side, 2 acyl side, 3 side chain; on linkers, the order of the positions; unused ones are H or OH. Bridge positions count the residues as written; N and C are the ends. Square brackets hold non-standard residues; d marks the D form. Peptide text beside a SMILES is read from it. * marks the point of attachment. hPhe(3-Cl-4-CF3) = N[C@@H](CCc1ccc(C(F)(F)F)c(Cl)c1)C(=O)O; hPhe(3-F,4-CF3) = N[C@@H](CCc1ccc(C(F)(F)F)c(F)c1)C(=O)O; hPhe(4-CF3) = N[C@@H](CCc1ccc(C(F)(F)F)cc1)C(=O)O; NMePhe(4-Cl) = CN[C@@H](Cc1ccc(Cl)cc1)C(=O)O; NMePhe(4-Me) = CN[C@@H](Cc1ccc(C)cc1)C(=O)O; hPhe(3-Cl) = N[C@@H](CCc1cccc(Cl)c1)C(=O)O; NMedβ3hAla = C[C@H](CC(=O)[*:2])N(C)[*:1]; Phe(3-I) = N[C@@H](Cc1cccc(I)c1)C(=O)O; NMeCha = CN[C@@H](CC1CCCCC1)C(=O)O; NMeCba = CN[C@@H](CC1CCC1)C(=O)O; NMeChg = CN[C@H](C(=O)O)C1CCCCC1; NMeF = CN[C@@H](Cc1ccccc1)C(=O)O; NMeI = CC[C@H](C)[C@H](NC)C(=O)O; NMeT = CN[C@H](C(=O)O)[C@@H](C)O; X138 = NCCOCCN(CC(=O)[*:2])[*:1]; N(CH2CH2)2CF2 = FC1(F)CCN(*)CC1; NMeD = CN[C@@H](CC(=O)O)C(=O)O; NMeL = CN[C@@H](CC(C)C)C(=O)O; NMeV = CN[C@H](C(=O)O)C(C)C; d(β3hA) = C[C@@H](N)CC(=O)O; NMeS = CN[C@@H](CO)C(=O)O; NMeA = CN[C@@H](C)C(=O)O; NMeAib = CNC(C)(C)C(=O)O; Piperidide = C1CCN(*)CC1; Ac5c = NC1(C(=O)O)CCCC1; Aze = O=C(O)[C@@H]1CCN1; Sar = CNCC(=O)O; Propyl = CCC*

Target: protein-protein interaction between Kras and SOS1 (biotin-tagged human Kras loaded with GDP, His-tagged human SOS1) (Homo sapiens (Human), UniProt P01116, G12D)
Experiment: Protein-protein interaction inhibition between Kras and SOS1 (KrasG12D-SOS PPI) using AlphaScreen;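 note: kras produced in E. coli, Ni-coupled donor beads and streptavidin acceptor beads, excitation 680 nm with emission detected at 520–620 nm via singlet oxygen transfer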
Format: biochemical
Details: AlphaScreen; biotin-tagged human Kras loaded with GDP, His-tagged human SOS1; read-out: KRAS G12D-SOS PPI IC50

`CC[C@H](C)[C@@H]1NC(=O)[C@H](CC2CCC2)N(C)C(=O)C[C@@H](C)NC(=O)[C@H](C(C)C)N(C)C(=O)C2(CCCC2)NC(=O)[C@@H]2CCCN2C(=O)[C@H](CCc2ccc(C(F)(F)F)c(Cl)c2)NC(=O)CN(C)C(=O)[C@H](CC2CCCCC2)N(C)C(=O)[C@@H]2CCN2C(=O)[C@H](C)N(C)C1=O` [Compound 455] (cyclo([Ac5c][NMeV][d(β3hA)][NMeCba]I[NMeA][Aze][NMeCha][Sar][hPhe(3-Cl-4-CF3)]P)) and `CC[C@H](C)[C@@H]1NC(=O)[C@H](C)N(C)C(=O)C[C@@H](C(=O)N2CCCCC2)N(C)C(=O)[C@H](C(C)C)N(C)C(=O)C2(CCCC2)NC(=O)[C@@H]2CCCN2C(=O)[C@H](CCc2cccc(Cl)c2)NC(=O)CN(C)C(=O)[C@H](CC2CCCCC2)N(C)C(=O)[C@@H]2CCN2C(=O)[C@H](C)N(C)C1=O` [Compound 625] ([NMeA]I[NMeA][Aze][NMeCha][Sar][hPhe(3-Cl)]P[Ac5c][NMeV][NMeD]-Piperidide; lactam N-11) are within 1.5-fold of each other in IC50: 59 nM for the first, 70 nM for the second.

Compared with `CC[C@H](C)[C@@H]1NC(=O)[C@H](CC(C)C)N(C)C(=O)C[C@@H](C(=O)N2CCCCC2)N(C)C(=O)[C@H](C(C)C)N(C)C(=O)C2(CCCC2)NC(=O)[C@@H]2CCCN2C(=O)[C@H](CCc2ccc(C(F)(F)F)c(Cl)c2)NC(=O)CN(C)C(=O)[C@H]([C@@H](C)OC)N(C)C(=O)[C@@H]2CCN2C(=O)[C@H](C)N(C)C1=O` [Compound 929] ([NMeL]I[NMeA][Aze][NMeT](Me)[Sar][hPhe(3-Cl-4-CF3)]P[Ac5c][NMeV][NMeD]-Piperidide; lactam N-11), `CCCOC[C@H]1C(=O)N(C)CC(=O)N[C@@H](CCc2ccc(C(F)(F)F)c(F)c2)C(=O)N2CCC[C@H]2C(=O)NC2(CCCC2)C(=O)N(C)[C@@H]([C@@H](C)CC)C(=O)N(C)[C@H](C)CC(=O)N(C)[C@@H](CC(C)C)C(=O)N[C@@H]([C@@H](C)CC)C(=O)N(C)[C@@H](C)C(=O)N2CC[C@H]2C(=O)N1C` [Compound 694] (cyclo([Ac5c][NMeI][NMedβ3hAla][NMeL]I[NMeA][Aze][NMeS](Propyl)[Sar][hPhe(3-F,4-CF3)]P)) is 3.4-fold higher in IC50: 4.1 nM for the first, 14 nM for the second. The first is the more potent here.

First: CC[C@H](C)[C@@H]1NC(=O)[C@H](C)N(C)C(=O)C[C@@H](C)N(C)C(=O)[C@H](CC(C)C)N(C)C(=O)[C@H](Cc2ccccc2)N(C)C(=O)[C@H](CC(C)C)NC(=O)[C@H](CCc2ccc(C(F)(F)F)cc2)NC(=O)CN(C)C(=O)[C@H](Cc2ccc(Cl)cc2)N(C)C(=O)CN(C)C(=O)CN(C)C1=O [Compound 927] (cyclo(I[Sar][Sar][NMePhe(4-Cl)][Sar][hPhe(4-CF3)]L[NMeF][NMeL][NMedβ3hAla][NMeA]))
Second: CC[C@H](C)[C@@H]1NC(=O)[C@H](CC(C)C)N(C)C(=O)C[C@@H](C(=O)N2CCC(F)(F)CC2)N(C)C(=O)[C@H](CC(C)C)NC(=O)C(C)(C)N(C)C(=O)[C@H](Cc2ccc(OC)cc2)NC(=O)[C@H](Cc2cccc(I)c2)NC(=O)CN(C)C(=O)[C@H](Cc2ccc(C)cc2)N(C)C(=O)CN(C)C(=O)CN(C)C1=O [Compound 2101, (3S,9S,12S,18S,27S,30S,34S)-34-(4,4-difluoropiperidine-1-carbonyl)-12-[(3-iodophenyl)methyl]-3,30-diisobutyl-9-[(4-methoxyphenyl)methyl]-1,6,6,7,16,19,22,25,31-nonamethyl-27-[(1S)-1-methylpropyl]-18-(p-tolylmethyl)-1,4,7,10,13,16,19,22,25,28,31-undecazacyclotetratriacontane-2,5,8,11,14,17,20,23,26,29,32-undecone] ([NMeL]I[Sar][Sar][NMePhe(4-Me)][Sar][Phe(3-I)]Y(Me)[NMeAib]L[NMeD]-{N(CH2CH2)2CF2}; lactam N-11)
The IC50 of the first is 2.3-fold lower: 23 nM for the first, 53 nM for the second. The first is the more potent here.

Compared with `CC[C@H](C)[C@@H]1NC(=O)[C@H](C)N(C)C(=O)C[C@@H](C(=O)N2CCCCC2)N(C)C(=O)[C@H](C(C)C)N(C)C(=O)C2(CCCC2)NC(=O)[C@@H]2CCCN2C(=O)[C@H](CCc2ccc(C(F)(F)F)c(Cl)c2)NC(=O)[C@H]2CCCN2C(=O)[C@H](Cc2ccccc2)N(C)C(=O)[C@@H]2CCCN2C(=O)CN(C)C1=O` [Compound 1839] ([NMeA]I[Sar]P[NMeF][dP][hPhe(3-Cl-4-CF3)]P[Ac5c][NMeV][NMeD]-Piperidide; lactam N-11), `CC[C@H](C)[C@@H]1NC(=O)[C@H](CC(C)C)N(C)C(=O)C[C@@H](C(=O)N2CCCCC2)N(C)C(=O)[C@H](C2CCCCC2)N(C)C(=O)C2(CCCC2)NC(=O)CN(CCOCCN)C(=O)[C@H](CCc2ccc(C(F)(F)F)c(Cl)c2)NC(=O)CN(C)C(=O)[C@H](CC2CCCCC2)N(C)C(=O)CN(C)C(=O)CN(C)C1=O` [Compound 2185, (11S,17S,26S,29S,33S,36S)-9-[2-(2-aminoethoxy)ethyl]-11-[2-[3-chloro-4-(trifluoromethyl)phenyl]ethyl]-36-cyclohexyl-17-(cyclohexylmethyl)-29-isobutyl-15,18,21,24,30,34,37-heptamethyl-26-[(1S)-1-methylpropyl]-33-(piperidine-1-carbonyl)-6,9,12,15,18,21,24,27,30,34,37-undecazaspiro[4.33]octatriacontane-7,10,13,16,19,22,25,28,31,35,38-undecone] ([NMeL]I[Sar][Sar][NMeCha][Sar][hPhe(3-Cl-4-CF3)][X138][Ac5c][NMeChg][NMeD]-Piperidide; lactam N-11) is 23-fold lower in IC50: 55 nM for the first, 2.4 nM for the second. The second is the more potent here.
